{"source": "patent US20250197368A1", "about": "(priority 2020, published 2025)", "key": {"[1]": {"target": "human α2β3γ2 GABAARs (benzodiazepine site) (Homo sapiens (Human), UniProt P18507+P47869)", "sequence (P47869 29-451)": "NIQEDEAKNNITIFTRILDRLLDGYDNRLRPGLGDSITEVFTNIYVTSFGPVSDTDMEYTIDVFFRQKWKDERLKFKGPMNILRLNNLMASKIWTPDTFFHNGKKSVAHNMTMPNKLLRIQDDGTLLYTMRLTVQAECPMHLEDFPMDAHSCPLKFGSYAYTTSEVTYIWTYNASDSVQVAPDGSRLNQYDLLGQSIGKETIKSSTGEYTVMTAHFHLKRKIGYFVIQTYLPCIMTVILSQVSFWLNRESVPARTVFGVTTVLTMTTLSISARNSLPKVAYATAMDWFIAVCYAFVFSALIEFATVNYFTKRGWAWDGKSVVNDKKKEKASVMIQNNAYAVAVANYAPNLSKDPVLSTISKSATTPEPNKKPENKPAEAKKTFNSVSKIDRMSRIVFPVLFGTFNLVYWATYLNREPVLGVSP", "sequence (P28472 26-473 partner)": "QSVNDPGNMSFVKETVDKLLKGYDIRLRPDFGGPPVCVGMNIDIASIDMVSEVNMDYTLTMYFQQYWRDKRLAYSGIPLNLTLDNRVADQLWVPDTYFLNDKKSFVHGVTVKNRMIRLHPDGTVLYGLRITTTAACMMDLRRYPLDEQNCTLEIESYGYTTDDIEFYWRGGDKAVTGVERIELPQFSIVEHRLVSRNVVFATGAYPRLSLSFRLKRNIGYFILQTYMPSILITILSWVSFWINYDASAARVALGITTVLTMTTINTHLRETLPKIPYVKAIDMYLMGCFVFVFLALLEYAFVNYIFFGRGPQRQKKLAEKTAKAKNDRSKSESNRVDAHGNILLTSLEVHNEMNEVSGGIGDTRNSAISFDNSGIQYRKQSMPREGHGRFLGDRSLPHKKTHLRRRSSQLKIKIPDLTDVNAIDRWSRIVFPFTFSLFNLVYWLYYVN", "sequence (P18507 40-475)": "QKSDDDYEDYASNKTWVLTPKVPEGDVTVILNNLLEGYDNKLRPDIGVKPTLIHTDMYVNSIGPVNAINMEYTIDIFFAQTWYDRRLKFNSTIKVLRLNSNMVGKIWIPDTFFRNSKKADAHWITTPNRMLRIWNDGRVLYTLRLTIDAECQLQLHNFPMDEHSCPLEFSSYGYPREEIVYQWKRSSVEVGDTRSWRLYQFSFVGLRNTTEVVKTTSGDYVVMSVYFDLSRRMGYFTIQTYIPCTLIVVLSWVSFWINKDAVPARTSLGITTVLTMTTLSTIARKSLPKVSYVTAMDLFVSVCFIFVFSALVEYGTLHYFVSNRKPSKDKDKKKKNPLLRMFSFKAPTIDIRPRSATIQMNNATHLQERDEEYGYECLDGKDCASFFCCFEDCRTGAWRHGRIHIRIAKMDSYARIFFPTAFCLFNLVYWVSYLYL", "experiment": "In vitro radioligand binding assay ([3H]Ro15-1788 displacement), α2-GABAAR Ki", "summary_of_the_method": "(§1)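 Ki derived via Cheng-Prusoff from IC50 for displacement of 4 nM [3H]Ro15-1788 (Kd from saturation binding), with 1-3 μM TP003 defining nonspecific binding. Incubation lasted 1 h at 4° C on membranes of induced L(tk−) cells stably transfected with the human subunits; detection by filtration and scintillation counting.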"}, "[2]": {"target": "human α3β3γ2 GABAARs (benzodiazepine site) (Homo sapiens (Human), UniProt P18507+P34903)", "experiment": "In vitro radioligand binding assay ([3H]Ro15-1788 displacement), α3-GABAAR Ki", "conditions": "L(tk-) cell membranes, 4 nM [3H]Ro15-1788", "summary_of_the_method": "as §1"}, "human α2β3γ2 GABAARs": {"test_system": "human α2β3γ2 GABAARs", "experiment": "In vitro electrophysiological recording assay (automated patch-clamp), α2-GABAAR relative efficacy", "assay_type": "cell-based", "conditions": "% efficacy normalised to diazepam; GABA EC10-20; concentration generally >= 100 times Ki", "summary_of_the_method": "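Relative efficacy is % enhancement of the leak-subtracted GABA EC10-20 peak current, divided by the separately measured diazepam value; compound generally tested at ≥100× Ki after ≥1 min pre-application. Recordings at room temperature, human receptors stably expressed in L(tk^−) (QPatch, −65 mV) or HEK293 (SyncroPatch, −80 mV) cells.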"}, "human α3β3γ2 GABAARs": {"test_system": "human α3β3γ2 GABAARs", "experiment": "In vitro electrophysiological recording assay (automated patch-clamp), α3-GABAAR relative efficacy", "assay_type": "cell-based", "conditions": "% efficacy normalised to diazepam; GABA EC10-20; concentration generally >= 100 times Ki", "experimental": "The efficacy of modulators was evaluated using the automated patch-clamp platforms QPatch16 (Sophion, Copenhagen, Denmark) or SyncroPatch 384PE (Nanion, Germany).\nFor QPatch electrophysiology testing L(tk^−) cells stably expressing human α1β3γ2, α2β3γ2, α3β3γ2, α5β3γ2 GABAARs were used. HEK293 cells stably expressing human α1β3γ2L, α2β3γ2L, α3β3γ2L and α5β3γ2L GABAARs were used for the SyncroPatch 384PE experiments.\nAll experiments were carried out at room temperature (20-22° C.) using a standard whole cell procedure and physiological solutions. Gigaseals were formed upon execution of a combined suction/voltage protocol with subsequent increased suction leading to the whole-cell configuration.\nThe currents recorded were acquired at either 1 KHz or 2 KHz and filtered using a Bessel filter. Whole-cell currents were measured at a holding potential of-65 mV (QPatch) or −80 mV (SyncroPatch).\nFor QPatch experiments, the extracellular solution contained of: 145 mM NaCl, 4 mM KCl, 1 mM MgCl2, 2 mM CaCl2), 10 mM HEPES, 10 mM D-glucose (pH 7.4), and the intracellular solution consisted of: 96 mM KCl, 28 mM CsCl, 25 mM KOH, 4.3 mM CaCl2), 1.4 mM MgCl2, 10 mM EGTA, 10 mM HEPES, 3 mM MgATP (pH 7.2). The osmolarities of the extracellular and intracellular solutions were 305 and 295 mOsm respectively.\nFor SyncroPatch experiments, the extracellular recording solution contained: 140 mM NaCl, 4 mM KCl, 2 mM CaCl2), 1 mM MgCl2, 10 mM HEPES, 5 mM glucose (pH 7.4 with NaOH and osmolarity of c. 300-310 mOsm). The intracellular recording solution consisted of: 90 mM KCl, 50 mM KF, 1.5 mM MgCl2, 11.1 mM EGTA and 10 mM HEPES (pH 7.2 with KOH and osmolarity of c. 300 mOsm). 2 mM of NaATP was added to the intracellular solution on the day of testing.\nThe effects of modulators were evaluated in the presence of a submaximal GABA concentration, giving typically less than 30% activation of the response elicited by a saturating GABA concentration. To check and ensure baseline current stability before compound addition, two to five consecutive applications of GABA EC10-20 separated by wash steps were performed before compound addition. The test compound was applied 1 min at least prior to co-application with GABA EC10-20. Following a further wash step, a saturating concentration of GABA was applied at the end of each recording, allowing the accurate evaluation for each cell of the percentage baseline activation elicited by the submaximal GABA applied.\nThe compounds were first dissolved in DMSO as a 10 mM stock and then further diluted to the testing concentrations so that the final DMSO concentration in the extracellular recording solution was 0.1% (QPatch) or 0.2% (SyncroPatch).\nThe % efficacy of modulators was determined from the GABA elicited currents recorded in the presence and absence of the test compound, using the formula:\n[((compound peak current−leak)−(GABA peak current-leak))/(GABA peak current−leak)]*100,\nwhere ‘leak’ is the leak baseline current at the holding potential, ‘compound peak current’ is the current elicited by co-application of compound and GABA, and ‘GABA peak current’ is the current elicited by GABA alone at the last GABA application before compound addition. The results were presented as ‘relative efficacy’ for each compound generally at a concentration equal or higher than 100 times their determined Ki. The relative efficacy of a compound was calculated by normalising its % efficacy to the corresponding % efficacy of diazepam that was separately determined."}}}
{"molecule": "CCCNC(=O)c1c(N)c2cccc(-c3cc(CN4CCC5(CCN(C)CC5)C4)ccc3F)c2[nH]c1=O", "note": "[Example 143, 4-Amino-8-(2-fluoro-5-((8-methyl-2,8-diazaspiro[4.5]decan-2-yl)methyl)phenyl)-2-oxo-N-propyl-1,2-dihydroquinoline-3-carboxamide]", "values": [{"measurement": "Ki", "setting": "[1]", "value": 1.8, "unit": "nM"}, {"measurement": "Ki", "setting": "[2]", "value": 10.1, "unit": "nM"}, {"measurement": "α2-GABAAR Relative Efficacy (vs. Diazepam)", "setting": "human α2β3γ2 GABAARs", "value": 0.32}, {"measurement": "α3-GABAAR Relative Efficacy (vs. Diazepam)", "setting": "human α3β3γ2 GABAARs", "value": 0.11}]}
